From ChEMBL document CHEMBL4507278 (2021)

Columns and labels:
[1] = target: Casein kinase I isoform delta (Homo sapiens) (UniProt P48730); settings: Compound concentration 1000.0 nM
[2] = target: Serine/threonine-protein kinase PLK2 (Homo sapiens) (UniProt Q9NYY3); settings: Compound concentration 1000.0 nM
[3] = target: Receptor-type tyrosine-protein kinase FLT3 (Homo sapiens) (UniProt P36888); settings: Compound concentration 1000.0 nM
[4] = system: Receptor-type tyrosine-protein kinase FLT3 (Homo sapiens), P36888 [D835H]; settings: Compound concentration 1000.0 nM
[5] = target: Mitogen-activated protein kinase kinase kinase kinase 2 (Homo sapiens) (UniProt Q12851); settings: Compound concentration 1000.0 nM
[6] = target: Serine/threonine-protein kinase DCLK3 (Homo sapiens) (UniProt Q9C098); settings: Compound concentration 1000.0 nM
[7] = target: Serine/threonine-protein kinase D2 (Homo sapiens) (UniProt Q9BZL6); settings: Compound concentration 1000.0 nM
[8] = target: Aurora kinase B (Homo sapiens) (UniProt Q96GD4); settings: Compound concentration 1000.0 nM
[9] = target: Angiopoietin-1 receptor (Homo sapiens) (UniProt Q02763); settings: Compound concentration 1000.0 nM
[10] = target: Serine/threonine-protein kinase PLK4 (Homo sapiens) (UniProt O00444); settings: Compound concentration 1000.0 nM
[11] = system: Phosphatidylinositol 4,5-bisphosphate 3-kinase catalytic subunit alpha isoform (Homo sapiens), P42336 [M1043I]; settings: Compound concentration 1000.0 nM
[12] = target: Rho-associated protein kinase 1 (Homo sapiens) (UniProt Q13464); settings: Compound concentration 1000.0 nM
[13] = target: Protein kinase C theta type (Homo sapiens) (UniProt Q04759); settings: Compound concentration 1000.0 nM
[14] = target: Serine/threonine-protein kinase LATS2 (Homo sapiens) (UniProt Q9NRM7); settings: Compound concentration 1000.0 nM
[15] = target: Calcium/calmodulin-dependent protein kinase type II subunit gamma (Homo sapiens) (UniProt Q13555); settings: Compound concentration 1000.0 nM
[16] = target: Serine/threonine-protein kinase WNK2 (Homo sapiens) (UniProt Q9Y3S1); settings: Compound concentration 1000.0 nM
[17] = target: Serine/threonine-protein kinase NLK (Homo sapiens) (UniProt Q9UBE8); settings: Compound concentration 1000.0 nM
[18] = system: Leucine-rich repeat serine/threonine-protein kinase 2 (Homo sapiens), Q5S007 [G2019S]; settings: Compound concentration 1000.0 nM
[19] = target: Mitogen-activated protein kinase kinase kinase 2 (Homo sapiens) (UniProt Q9Y2U5); settings: Compound concentration 1000.0 nM
[20] = target: LIM domain kinase 1 (Homo sapiens) (UniProt P53667); settings: Compound concentration 1000.0 nM
[21] = system: Tyrosine-protein kinase ABL1 (Homo sapiens), P00519 [Y253F]; settings: Compound concentration 1000.0 nM
[22] = target: Interferon-induced, double-stranded RNA-activated protein kinase (Homo sapiens) (UniProt P19525); settings: Compound concentration 1000.0 nM
[23] = target: Proto-oncogene tyrosine-protein kinase ROS (Homo sapiens) (UniProt P08922); settings: Compound concentration 1000.0 nM
[24] = target: Serine/threonine-protein kinase Nek11 (Homo sapiens) (UniProt Q8NG66); settings: Compound concentration 1000.0 nM
[25] = target: Dual serine/threonine and tyrosine protein kinase (Homo sapiens) (UniProt Q6XUX3); settings: Compound concentration 1000.0 nM
[26] = target: Mitogen-activated protein kinase 10 (Homo sapiens) (UniProt P53779); settings: Compound concentration 1000.0 nM
[27] = target: RAC-gamma serine/threonine-protein kinase (Homo sapiens) (UniProt Q9Y243); settings: Compound concentration 1000.0 nM
[28] = target: Serine/threonine-protein kinase PAK 6 (Homo sapiens) (UniProt Q9NQU5); settings: Compound concentration 1000.0 nM
[29] = target: Casein kinase I isoform gamma-1 (Homo sapiens) (UniProt Q9HCP0); settings: Compound concentration 1000.0 nM
[30] = target: Hormonally up-regulated neu tumor-associated kinase (Homo sapiens) (UniProt P57058); settings: Compound concentration 1000.0 nM
[31] = target: Casein kinase II subunit alpha' (Homo sapiens) (UniProt P19784); settings: Compound concentration 1000.0 nM
[32] = target: Serine/threonine-protein kinase Nek9 (Homo sapiens) (UniProt Q8TD19); settings: Compound concentration 1000.0 nM
[33] = target: Ephrin type-B receptor 2 (Homo sapiens) (UniProt P29323); settings: Compound concentration 1000.0 nM
[34] = target: Bone morphogenetic protein receptor type-1A (Homo sapiens) (UniProt P36894); settings: Compound concentration 1000.0 nM
[35] = target: Phosphorylase b kinase gamma catalytic chain, skeletal muscle/heart isoform (Homo sapiens) (UniProt Q16816); settings: Compound concentration 1000.0 nM
[36] = target: Glycogen synthase kinase-3 alpha (Homo sapiens) (UniProt P49840); settings: Compound concentration 1000.0 nM
[37] = target: Wee1-like protein kinase 2 (Homo sapiens) (UniProt P0C1S8); settings: Compound concentration 1000.0 nM
[38] = target: Inhibitor of nuclear factor kappa-B kinase subunit alpha (Homo sapiens) (UniProt O15111); settings: Compound concentration 1000.0 nM
[39] = target: Receptor tyrosine-protein kinase erbB-2 (Homo sapiens) (UniProt P04626); settings: Compound concentration 1000.0 nM
[40] = system: Receptor-type tyrosine-protein kinase FLT3 (Homo sapiens), P36888 [K663Q]; settings: Compound concentration 1000.0 nM
[41] = system: Phosphatidylinositol 4,5-bisphosphate 3-kinase catalytic subunit alpha isoform (Homo sapiens), P42336 [I800L]; settings: Compound concentration 1000.0 nM
[42] = target: Mitogen-activated protein kinase kinase kinase 20 (Homo sapiens) (UniProt Q9NYL2); settings: Compound concentration 1000.0 nM
[43] = target: Sodium-dependent dopamine transporter (Homo sapiens) (UniProt Q01959); settings: Compound concentration 10.0 uM
[44] = system: Tyrosine-protein kinase ABL1 (Homo sapiens), P00519 [F317L]; settings: Compound concentration 1000.0 nM
[45] = target: Macrophage colony-stimulating factor 1 receptor (Homo sapiens) (UniProt P07333); settings: Compound concentration 1000.0 nM

Chain of Bone morphogenetic protein receptor type-1A (Homo sapiens) (P36894 whole entry, canonical isoform): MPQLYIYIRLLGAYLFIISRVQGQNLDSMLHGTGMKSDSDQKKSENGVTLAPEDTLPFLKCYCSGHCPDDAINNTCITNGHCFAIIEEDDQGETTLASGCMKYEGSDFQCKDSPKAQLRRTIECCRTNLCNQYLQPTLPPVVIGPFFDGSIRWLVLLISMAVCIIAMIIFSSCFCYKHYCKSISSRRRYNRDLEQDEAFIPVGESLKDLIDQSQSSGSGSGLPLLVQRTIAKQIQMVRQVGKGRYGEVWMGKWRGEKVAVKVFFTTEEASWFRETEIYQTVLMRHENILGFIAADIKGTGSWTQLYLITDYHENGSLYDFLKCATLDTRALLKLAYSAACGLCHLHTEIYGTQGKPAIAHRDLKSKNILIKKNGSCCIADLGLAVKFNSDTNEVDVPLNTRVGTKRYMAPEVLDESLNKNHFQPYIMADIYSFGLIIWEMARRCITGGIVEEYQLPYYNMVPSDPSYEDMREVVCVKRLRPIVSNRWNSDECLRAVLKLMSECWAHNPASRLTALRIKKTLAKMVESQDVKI
Chain of Serine/threonine-protein kinase PLK2 (Homo sapiens) (Q9NYY3 whole entry, looked up): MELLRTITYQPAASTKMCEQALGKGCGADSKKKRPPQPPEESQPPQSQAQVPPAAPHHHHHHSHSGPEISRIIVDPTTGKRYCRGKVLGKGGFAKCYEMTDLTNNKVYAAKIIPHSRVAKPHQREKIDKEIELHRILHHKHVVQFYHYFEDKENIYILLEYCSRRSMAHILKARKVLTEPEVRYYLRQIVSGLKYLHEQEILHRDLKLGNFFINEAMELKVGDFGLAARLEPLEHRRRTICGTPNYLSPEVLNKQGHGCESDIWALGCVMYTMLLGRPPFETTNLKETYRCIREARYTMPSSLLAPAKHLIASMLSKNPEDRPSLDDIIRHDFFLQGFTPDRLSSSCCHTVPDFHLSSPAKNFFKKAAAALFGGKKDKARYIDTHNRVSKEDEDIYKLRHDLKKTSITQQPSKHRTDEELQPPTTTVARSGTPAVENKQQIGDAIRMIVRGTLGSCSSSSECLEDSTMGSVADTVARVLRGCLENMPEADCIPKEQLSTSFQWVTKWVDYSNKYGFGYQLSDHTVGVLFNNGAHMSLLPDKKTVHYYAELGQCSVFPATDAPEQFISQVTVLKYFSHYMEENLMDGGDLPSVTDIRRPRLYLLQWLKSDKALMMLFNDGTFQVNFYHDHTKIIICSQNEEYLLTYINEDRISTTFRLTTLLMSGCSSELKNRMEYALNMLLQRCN
Chain of Serine/threonine-protein kinase DCLK3 (Homo sapiens) (Q9C098 whole entry): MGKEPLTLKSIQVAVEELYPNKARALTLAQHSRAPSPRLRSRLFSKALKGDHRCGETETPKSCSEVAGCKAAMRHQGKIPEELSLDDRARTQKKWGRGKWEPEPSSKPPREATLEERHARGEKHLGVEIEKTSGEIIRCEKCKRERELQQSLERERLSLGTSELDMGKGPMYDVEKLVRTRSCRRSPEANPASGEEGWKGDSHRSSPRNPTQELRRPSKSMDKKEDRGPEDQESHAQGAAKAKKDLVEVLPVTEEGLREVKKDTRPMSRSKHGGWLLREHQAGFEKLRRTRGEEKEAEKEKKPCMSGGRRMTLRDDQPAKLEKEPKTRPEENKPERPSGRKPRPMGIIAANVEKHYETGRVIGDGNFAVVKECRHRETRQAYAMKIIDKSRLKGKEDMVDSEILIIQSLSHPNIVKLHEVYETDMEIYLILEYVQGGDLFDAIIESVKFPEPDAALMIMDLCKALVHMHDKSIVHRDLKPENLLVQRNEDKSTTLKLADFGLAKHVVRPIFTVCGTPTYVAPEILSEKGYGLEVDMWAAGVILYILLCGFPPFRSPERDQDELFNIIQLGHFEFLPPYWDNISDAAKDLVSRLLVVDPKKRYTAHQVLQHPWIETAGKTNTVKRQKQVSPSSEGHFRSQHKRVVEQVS
Chain of Inhibitor of nuclear factor kappa-B kinase subunit alpha (Homo sapiens) (O15111 whole entry): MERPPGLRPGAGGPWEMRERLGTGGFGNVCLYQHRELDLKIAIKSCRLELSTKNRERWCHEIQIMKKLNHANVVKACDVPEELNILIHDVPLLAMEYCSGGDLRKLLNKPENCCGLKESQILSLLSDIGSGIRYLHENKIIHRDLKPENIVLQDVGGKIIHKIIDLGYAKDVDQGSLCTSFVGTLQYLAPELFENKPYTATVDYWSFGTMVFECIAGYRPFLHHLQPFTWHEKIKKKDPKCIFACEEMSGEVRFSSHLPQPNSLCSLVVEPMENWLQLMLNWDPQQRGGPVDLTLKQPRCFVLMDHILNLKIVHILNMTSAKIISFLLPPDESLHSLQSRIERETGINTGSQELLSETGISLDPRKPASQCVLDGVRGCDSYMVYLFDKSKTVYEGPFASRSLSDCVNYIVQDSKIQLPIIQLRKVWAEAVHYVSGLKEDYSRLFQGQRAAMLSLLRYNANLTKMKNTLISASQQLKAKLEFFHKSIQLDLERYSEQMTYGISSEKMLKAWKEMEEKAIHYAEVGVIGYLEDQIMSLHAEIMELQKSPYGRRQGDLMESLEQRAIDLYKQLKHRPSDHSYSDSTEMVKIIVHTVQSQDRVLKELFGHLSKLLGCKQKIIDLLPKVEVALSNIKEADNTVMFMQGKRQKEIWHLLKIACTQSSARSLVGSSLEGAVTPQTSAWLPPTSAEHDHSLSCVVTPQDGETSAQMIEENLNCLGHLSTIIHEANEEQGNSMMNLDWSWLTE
Chain of RAC-gamma serine/threonine-protein kinase (Homo sapiens) (Q9Y243 whole entry): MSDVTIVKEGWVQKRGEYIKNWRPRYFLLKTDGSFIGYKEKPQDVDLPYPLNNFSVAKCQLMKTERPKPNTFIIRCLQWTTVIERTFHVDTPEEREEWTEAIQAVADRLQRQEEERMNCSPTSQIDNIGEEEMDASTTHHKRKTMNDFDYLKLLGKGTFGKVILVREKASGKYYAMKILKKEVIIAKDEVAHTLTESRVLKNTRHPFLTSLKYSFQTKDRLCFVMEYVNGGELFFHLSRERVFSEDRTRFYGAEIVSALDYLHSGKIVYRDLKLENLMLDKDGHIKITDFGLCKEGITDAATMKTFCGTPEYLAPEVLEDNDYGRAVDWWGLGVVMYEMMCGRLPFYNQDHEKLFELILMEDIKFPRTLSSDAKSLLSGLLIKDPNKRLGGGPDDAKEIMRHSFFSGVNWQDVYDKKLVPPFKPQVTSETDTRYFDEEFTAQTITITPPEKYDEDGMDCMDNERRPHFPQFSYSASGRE
Chain of Phosphatidylinositol 4,5-bisphosphate 3-kinase catalytic subunit alpha isoform (Homo sapiens), P42336 [I800L] (P42336 whole entry I800L, canonical isoform): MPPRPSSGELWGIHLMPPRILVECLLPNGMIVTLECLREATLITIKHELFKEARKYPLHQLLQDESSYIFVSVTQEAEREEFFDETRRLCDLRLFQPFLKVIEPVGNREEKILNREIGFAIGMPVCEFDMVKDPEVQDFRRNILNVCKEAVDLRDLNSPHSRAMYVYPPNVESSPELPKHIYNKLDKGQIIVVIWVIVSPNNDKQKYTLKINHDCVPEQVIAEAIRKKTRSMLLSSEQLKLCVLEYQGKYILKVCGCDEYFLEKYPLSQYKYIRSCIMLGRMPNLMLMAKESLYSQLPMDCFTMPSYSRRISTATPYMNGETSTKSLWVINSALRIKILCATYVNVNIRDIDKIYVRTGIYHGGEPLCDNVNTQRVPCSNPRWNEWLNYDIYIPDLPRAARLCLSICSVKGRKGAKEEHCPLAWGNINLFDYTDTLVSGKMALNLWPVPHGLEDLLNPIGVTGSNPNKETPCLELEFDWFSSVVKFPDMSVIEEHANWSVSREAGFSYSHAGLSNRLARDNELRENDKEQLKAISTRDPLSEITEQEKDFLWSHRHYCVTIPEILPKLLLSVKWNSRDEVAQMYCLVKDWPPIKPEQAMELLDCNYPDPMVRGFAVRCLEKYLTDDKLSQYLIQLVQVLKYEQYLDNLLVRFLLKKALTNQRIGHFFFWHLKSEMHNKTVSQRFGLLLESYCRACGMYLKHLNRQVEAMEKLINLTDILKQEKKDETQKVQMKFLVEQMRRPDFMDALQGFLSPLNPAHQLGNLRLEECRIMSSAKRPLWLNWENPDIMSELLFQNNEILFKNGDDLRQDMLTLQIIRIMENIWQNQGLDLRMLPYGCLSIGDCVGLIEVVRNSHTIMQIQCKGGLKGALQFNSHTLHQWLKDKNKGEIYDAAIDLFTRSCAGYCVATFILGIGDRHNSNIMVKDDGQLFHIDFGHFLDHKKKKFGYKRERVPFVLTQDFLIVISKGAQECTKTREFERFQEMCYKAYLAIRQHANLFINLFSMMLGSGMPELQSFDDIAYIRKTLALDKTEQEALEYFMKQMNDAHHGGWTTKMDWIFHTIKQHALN
Chain of Aurora kinase B (Homo sapiens) (Q96GD4 whole entry): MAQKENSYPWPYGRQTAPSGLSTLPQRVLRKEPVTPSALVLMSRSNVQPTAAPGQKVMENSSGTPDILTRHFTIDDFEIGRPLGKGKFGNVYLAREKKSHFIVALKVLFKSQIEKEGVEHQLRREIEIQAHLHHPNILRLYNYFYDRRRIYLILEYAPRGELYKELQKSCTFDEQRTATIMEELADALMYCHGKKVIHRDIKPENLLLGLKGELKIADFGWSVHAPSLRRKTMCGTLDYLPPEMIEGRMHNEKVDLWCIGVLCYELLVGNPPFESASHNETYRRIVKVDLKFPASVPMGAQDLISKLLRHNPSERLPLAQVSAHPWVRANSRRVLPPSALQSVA
Chain of Serine/threonine-protein kinase NLK (Homo sapiens) (Q9UBE8 whole entry): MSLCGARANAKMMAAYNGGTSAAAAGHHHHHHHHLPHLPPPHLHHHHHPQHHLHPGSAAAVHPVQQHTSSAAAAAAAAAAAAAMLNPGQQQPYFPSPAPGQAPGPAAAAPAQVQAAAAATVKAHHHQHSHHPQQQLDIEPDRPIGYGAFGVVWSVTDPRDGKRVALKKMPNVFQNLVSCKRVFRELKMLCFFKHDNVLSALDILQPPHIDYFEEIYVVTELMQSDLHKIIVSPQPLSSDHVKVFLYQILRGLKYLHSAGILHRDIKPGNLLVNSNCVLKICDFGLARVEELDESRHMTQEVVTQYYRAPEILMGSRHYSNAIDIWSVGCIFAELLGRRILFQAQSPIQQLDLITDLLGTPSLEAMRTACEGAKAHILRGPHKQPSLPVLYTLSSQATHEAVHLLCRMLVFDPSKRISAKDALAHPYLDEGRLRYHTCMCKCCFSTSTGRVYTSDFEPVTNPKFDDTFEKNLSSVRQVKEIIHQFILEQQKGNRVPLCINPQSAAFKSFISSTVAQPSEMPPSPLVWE

CS(=O)(=O)NCC[C@H](NC(=O)c1cncc2c1cnn2-c1ccc(F)cc1)c1ccnc(S(C)(=O)=O)c1 [BI 9307]
inactive: residual activity [1] 100% | residual activity [2] 100% | residual activity [3] 93% | residual activity [4] 100% | residual activity [5] 91% | residual activity [6] 93% | residual activity [7] 94% | residual activity [8] 100% | residual activity [9] 84% | residual activity [10] 89% | residual activity [11] 95% | residual activity [12] 100% | residual activity [13] 100% | residual activity [14] 97% | residual activity [15] 99% | residual activity [16] 100% | residual activity [17] 100% | residual activity [18] 92% | residual activity [19] 100% | residual activity [20] 100% | residual activity [21] 95% | residual activity [22] 53% | residual activity [23] 94% | residual activity [24] 100% | residual activity [25] 98% | residual activity [26] 100% | residual activity [27] 93% | residual activity [28] 100% | residual activity [29] 91% | residual activity [30] 100% | residual activity [31] 100% | residual activity [32] 100% | residual activity [33] 92% | residual activity [34] 92% | residual activity [35] 75% | residual activity [36] 100% | residual activity [37] 100% | residual activity [38] 100% | residual activity [39] 100% | residual activity [40] 100% | residual activity [41] 61% | residual activity [42] 88% | inhibition [43] 25.3% | residual activity [44] 100% | residual activity [45] 100%

CS(=O)(=O)c1cc(C2(NC(=O)c3cncc4c3cnn4-c3ccc(F)cc3)CC2)ccn1 [BI 639667]
inactive: residual activity [1] 99% | residual activity [2] 70% | residual activity [3] 100% | residual activity [4] 100% | residual activity [5] 100% | residual activity [6] 100% | residual activity [7] 97% | residual activity [8] 88% | residual activity [9] 100% | residual activity [10] 85% | residual activity [11] 93% | residual activity [12] 79% | residual activity [13] 99% | residual activity [14] 100% | residual activity [15] 72% | residual activity [16] 75% | residual activity [17] 100% | residual activity [18] 100% | residual activity [19] 84% | residual activity [20] 100% | residual activity [21] 91% | residual activity [22] 60% | residual activity [23] 100% | residual activity [24] 100% | residual activity [25] 70% | residual activity [26] 100% | residual activity [27] 96% | residual activity [28] 96% | residual activity [29] 100% | residual activity [30] 100% | residual activity [31] 80% | residual activity [32] 100% | residual activity [33] 100% | residual activity [34] 100% | residual activity [35] 78% | residual activity [36] 70% | residual activity [37] 100% | residual activity [38] 100% | residual activity [39] 100% | residual activity [40] 100% | residual activity [41] 68% | residual activity [42] 86% | inhibition [43] 22.5% | residual activity [44] 100% | residual activity [45] 79%
